Measurements from a melting point compilation (Tetko et al.; mined from patent text by program, amines drawn as free bases though some values may be those of a salt).

melting point | Structure (SMILES)
59 to 61 °C | C1=COc2ccccc2O1
175 to 176 °C | CN(C)C=NC(=O)c1nn(-c2ccccc2)c(=O)cc1Oc1ccccc1
118 to 120 °C | CCCCCCCCNC(=O)c1ccc(O)c(O)c1
167 °C | C=CC(=O)NCc1ccc(CBr)cc1
178 to 179 °C | Nc1ncnc2c1c(-c1ccc(Oc3ccccc3)cc1)cn2C1CCCC1
164 to 166 °C | CCOC(=O)c1cn(C)c2cc(F)ccc2c1=O
83 to 91 °C | COc1ccc(C2CNC(=O)O2)cc1OCc1ccccc1 (stereo unspecified)
137 to 139 °C | CC(=NO)c1ccc(C(F)(F)C(F)(F)c2ccccc2)cc1
203 to 205 °C | CC(C)(C)NCC(O)COc1cccc2nc[nH]c12 (stereo unspecified)
109 to 111 °C | O=S(=O)(F)c1cc2nc(Cl)c(Cl)nc2cc1Cl
159 to 160 °C | c1ccc2c(c1)OCC(CCc1ncc[nH]1)O2 (stereo unspecified)
75 to 77 °C | CNC(C)=C(C(=O)OC)C(=O)c1ccccc1
175 to 177 °C | COc1ccccc1C(c1cccc2ccccc12)C(C)(C#N)C#N (stereo unspecified)
197 to 199 °C | CCCCNC(=O)Nc1ccc(-n2ccnc2)cc1C(=O)NCC1CCN(C(c2ccccc2)c2ccccc2)CC1
88 to 88.5 °C | CC1(C)CCOc2cc(O)ccc21
139 to 140 °C | CS(=O)(=O)c1ccc(-c2cc3cccccc-3c2-c2ccccc2)cc1
91 to 93 °C | C=CCn1cc(C(O)(c2ccc3c(cnn3-c3ccc(F)cc3)c2)C(F)(F)F)c2ccn(C)c(=O)c21 (stereo unspecified)
97 to 98 °C | CC1CC(C)(C)c2ccc(O)cc2O1 (stereo unspecified)
236 to 238 °C | CCOC(=O)c1nn(-c2cccc(Cl)c2)c(=O)c2c1c1ccc(Cl)cc1n2C
235 to 236 °C | CC1=C(c2ccccc2)C(=O)c2ccccc2C1=O
247 °C | CCOC(=O)C1=C(Cc2ccccc2)Nc2n[nH]cc2C1c1ccccc1Cl (stereo unspecified)
110 to 112 °C | Cc1oc(-c2ccccc2)nc1COc1ccc(CON=C(CCC(N)=O)c2ccccc2)cc1
144 to 147 °C | O=C(NCc1ccco1)c1ccc(-c2ccc3nnn(Cc4ccc5ncccc5c4)c3n2)cc1F

melting point | Structure (SMILES)
120 to 121 °C | O=C(Nc1cnc(-c2ccccc2)nc1Cl)OCc1ccccc1
153 to 154 °C | CCCCc1nc2c(N)nc3cccnc3c2n1CCNC(=O)C1CCC(=O)O1 (stereo unspecified)
124 to 126 °C | C=CCc1ccc(CCNC(=O)c2cc(Cl)ccc2OC)cc1S(=O)(=O)NC(=O)NC
94 to 97 °C | CC(C)N1CC(COc2ccc([N+](=O)[O-])c(C=O)c2)OC1=O (stereo unspecified)
192 to 193 °C | OCc1nn(C(c2ccccc2)(c2ccccc2)c2ccccc2)c2ccccc12
295 to 297 °C | CCc1c(Br)sc2[nH]c(=O)c(=O)[nH]c12
177 °C | CC(C)c1ccc(-c2nc(Cl)c(C=O)n2Cc2ccc(-c3ccccc3S(=O)(=O)N=CN(C)C)cc2)cc1
107 to 110 °C | CC(C)c1nc(C(C)C)c(CO)c(-c2ccc(F)cc2)c1/C=C/c1ccccc1
101 to 105 °C | CN(C)CCc1cccc(N2C(=O)N(c3c(Cl)cccc3Cl)Cc3cnc(Nc4ccccc4)nc32)c1
162 °C | CCN(CC)C(=O)c1cc2ccc(C)cc2c(-c2ccccc2Cl)n1
120 to 121 °C | CCOC(=O)C1=C(C)NC(C)=C(C(=O)OCC)C1c1ccccc1Cl
226 to 228 °C | O=c1c2c(Cc3ccc(F)cc3)n[nH]c2c2cccnc2n1-c1cccc(OC(F)(F)F)c1
226 to 227 °C | COc1cccc(Oc2nc(N)n3nc(-c4ccco4)nc3n2)c1
263 to 267 °C | Cc1cc(=O)n2nc(-c3ccncc3)nc2n1C
134 °C | CNC(=S)NS(=O)(=O)c1cc(CCNC(=O)c2cc(Cl)ccc2OC)ccc1OCCOC
210 to 212 °C | COc1ccc(-c2nc(N3CCNCC3)c3c(C)c(C#N)sc3n2)cc1
112 to 113 °C | CCN(C(=O)N1CCN(c2ccccc2OC)CC1)c1cc(C)c(C)nc1OC
151 to 152 °C | O=C(CBr)N[C@H](Cc1ccc(C(F)(F)F)cc1)[C@@H](O)c1ccc(F)cc1 (racemic)
75 to 76 °C | CCc1cc(C(C)=O)c(O)cc1OCCCCCN
190 to 191 °C | CC(C)c1cccc(C(C)C)c1NC(=O)CNC(c1ccccc1)c1cccc(C(=O)O)c1 (stereo unspecified)
140 to 142 °C | Nc1c(Cl)cc(C(O)CNCCCCCOCCc2ccccn2)cc1Cl (stereo unspecified)
128 to 130 °C | Cc1cc(C)c(S(=O)(=O)On2nnc3ccccc32)c(C)c1
184 to 186 °C | Nc1ncnc2ncn(COCCCl)c12

melting point | Structure (SMILES)
156 to 159 °C | COc1cc(C(=O)N2CCN(c3cccc(C)c3Cl)CC2)cc(OC)c1OC
75 to 76 °C | CCCc1c(OCCCCCOc2ccccc2CCC(=O)O)ccc2c1OCCC2=O
156 to 160 °C | CCOC(=O)C1CCC(n2nc(-c3c(-c4ccccc4)nn4ccccc34)ccc2=O)CC1 (stereo unspecified)
27 to 30 °C | COC(=O)c1ccc(Cl)cc1O
> 260 °C | COC(=O)CCc1ccc(-n2ccn(-c3ccc(C(=N)NC(=O)OC)cc3)c2=O)cc1
85 to 90 °C | COC(=O)C1=C(C)NC(C)=C(C(=O)OC(C)(C)C)C1c1cccc(N)c1 (stereo unspecified)
136 to 137 °C | COC(=O)Nc1cc(C)on1
133 to 135 °C | Cc1cc(C)c2c(n1)N(CCN1CCOCC1)c1ccccc1N(C)C2=O
230 to 235 °C | NC(=O)c1ccccc1NC(=O)c1ccc2c(c1)CCO2
124 to 125 °C | CCOC(=O)/C(=N\OC(C)(C)C(=O)OC(C)(C)C)c1nc(C(c2ccccc2)(c2ccccc2)c2ccccc2)sc1N
83 to 85 °C | CCC(COC)NC(=O)C(Cc1ccc(OCc2ccccc2)cc1)NC(=O)C(CC(C)C)N(C)CCC(C)C (stereo unspecified)
218 °C | CC(C)(C)OC(=O)N1CCC(OCc2ccccc2)C1CC(O)Cn1cnc2ccc(F)c(F)c2c1=O (stereo unspecified)
199 to 200 °C | CCOC(=O)c1c(-c2ccccc2Cl)c2cc(CC)ccc2[nH]c1=O
207 to 208 °C | CCCNc1sc(C(N)=O)c2c1-c1c(cnn1C)CC2
232 °C | COc1ccc(N2CCN(c3ccc(NC4=NC(C)(C)CS4)cc3)CC2)cc1
160 to 163 °C | O=C1[C@H]2CCC[C@H]2Nc2ccc(Cl)cc2N1Cc1ccccc1 (relative stereo)
64 to 66 °C | O=C1c2ccccc2S(=O)(=O)N1CCCCCCOc1ccccc1
179 to 181 °C | CC(C)(C)N1C(=O)OC2(CCN(Cc3ccccc3)CC2)C1(C)O (stereo unspecified)
127 to 130 °C | O=C1c2ccccc2C(=O)N1CC1CC(=O)N(Cc2ccccc2)c2ccccc2N1 (stereo unspecified)
110 to 112 °C | Cc1cccc(C(F)(F)C(F)(F)c2ccccc2)c1C
84 to 85 °C | Fc1ccc(C2=CCC3(CC2)OCCO3)cc1

Structure (SMILES) | melting point
O=C(Oc1ccccc1)c1ncn2c1[C@@H]1CCCN1C(=O)c1c(Cl)cccc1-2 | 211 to 212 °C
CN1CCC(c2ccc(Cl)c(Cl)c2)C(CO)C1 (stereo unspecified) | 109 to 111 °C
COC1=CC2=CCC3C(CCC4(C)C(=O)CC(OC(C)=O)C34)C2(C)CC1 (stereo unspecified) | 209 °C
CN1C(=O)C(C)(C)N=C(c2ccccc2F)c2c(Cl)c(N)c(Cl)c(Cl)c21 | 165 to 166 °C
